Like-named read-outs stand apart in the source and are kept apart here.
Columns and labels:
MDR1 = MDR1 (Homo sapiens (Human), UniProt P08183); assay: MDCK-MDR1 assay (in vitro brain penetration); type: in vitro ADME; details: human; for Papp B→A: read-out: MDCK MDR1 Papp BA; for Papp A→B: MDCK-MDR1, A to B, read-out: MDCK MDR1 Papp AB
Description: MDCK-MDR1: MDCK-MDR1 data were collected according to the method described in “Are MDCK Cells Transfected with the Human MDR1 Gene a Good Model of the Human Intestinal Mucosa?”
http://www.springerlink.com/content/qfhqlqbr4fnp3 khf/fulltext.pdf

TRKA [1] = target: T1, TRKA (Homo sapiens (Human), UniProt P04629); assay: Isolated TRK enzyme assay (HTRF KinEASE-TK), TRKA; type: biochemical; details: isolated TRKA enzyme; read-out: TrkA enzyme potency
Target sequence in this assay (P04629 441-796): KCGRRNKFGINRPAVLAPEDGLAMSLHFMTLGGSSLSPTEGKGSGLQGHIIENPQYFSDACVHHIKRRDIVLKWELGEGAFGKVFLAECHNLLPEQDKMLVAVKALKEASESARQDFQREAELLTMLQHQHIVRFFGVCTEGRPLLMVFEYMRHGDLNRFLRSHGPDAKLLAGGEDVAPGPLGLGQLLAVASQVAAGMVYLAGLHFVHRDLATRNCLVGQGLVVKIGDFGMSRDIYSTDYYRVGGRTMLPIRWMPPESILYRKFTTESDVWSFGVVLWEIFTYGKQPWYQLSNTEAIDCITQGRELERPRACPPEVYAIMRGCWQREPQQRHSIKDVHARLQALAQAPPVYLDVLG

TRKB [2] = target: T2, TRKB (Homo sapiens (Human), UniProt Q16620); assay: biochemical
T2 sequence (Q16620 32-822 limits assumed): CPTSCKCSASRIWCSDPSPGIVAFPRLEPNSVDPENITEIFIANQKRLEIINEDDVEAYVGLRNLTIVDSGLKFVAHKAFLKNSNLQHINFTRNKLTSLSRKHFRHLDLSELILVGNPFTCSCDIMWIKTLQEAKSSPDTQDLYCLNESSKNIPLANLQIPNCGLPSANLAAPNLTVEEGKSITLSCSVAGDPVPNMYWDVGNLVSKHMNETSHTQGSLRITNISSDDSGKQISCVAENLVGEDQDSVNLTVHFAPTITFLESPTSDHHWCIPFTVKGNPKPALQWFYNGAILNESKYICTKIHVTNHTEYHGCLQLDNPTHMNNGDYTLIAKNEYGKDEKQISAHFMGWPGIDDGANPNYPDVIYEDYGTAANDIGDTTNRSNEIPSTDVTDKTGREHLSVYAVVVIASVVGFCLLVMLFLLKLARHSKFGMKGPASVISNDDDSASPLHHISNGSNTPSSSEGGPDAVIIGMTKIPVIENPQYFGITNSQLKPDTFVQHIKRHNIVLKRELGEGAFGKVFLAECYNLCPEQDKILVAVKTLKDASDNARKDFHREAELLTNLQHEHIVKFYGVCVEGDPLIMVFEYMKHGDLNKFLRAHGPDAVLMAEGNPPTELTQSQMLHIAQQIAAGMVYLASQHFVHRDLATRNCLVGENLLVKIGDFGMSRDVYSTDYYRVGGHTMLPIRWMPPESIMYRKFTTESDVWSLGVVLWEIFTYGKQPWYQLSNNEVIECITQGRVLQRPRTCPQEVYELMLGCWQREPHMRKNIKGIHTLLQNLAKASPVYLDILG

TRKA [3] = target: T1, TRKA; assay: Cell based DiscoveRx PathHunter antagonist assay, TRKA cell line; details: read-out: TrkA cell potency
Experimental: (§1) After the Detection Reagent addition, plates are covered and incubated at room temperature for 60 minutes. […] Test compound data are expressed as percentage inhibition defined by HPE and ZPE values for each plate. Percentage inhibition in the presence of test compound is plotted against compound concentration on a log scale to determine an IC50 from the resultant sigmoid curve. Cell Based Assays were carried out using Cell lines from DiscoveRx utilising their PathHunter technology and reagents in an antagonist assay:
(§2) The assays are based upon DiscoveRx's proprietary Enzyme Fragment Complementation (EFC) technology. In the case of the TRK cell lines, the enzyme acceptor (EA) protein is fused to a SH2 protein and the TRK receptor of interest has been tagged with a Prolink tag.
(§3) Upon neurotrophin binding, the TRK receptor becomes phosphorylated, and the tagged SH2 protein binds.
(§4) This means that the IC50 is a good measure of affinity and should be unaffected by concentration neurotrophin stimulant.
(§5) Cryopreserved PathHunter cells are used from either in-house produced batches or bulk batches bought directly from DiscoveRx. Cryopreserved cells are resuscitated, spun 1000 rpm for 4 min to remove freezing media, and resuspended in MEM+0.5% horse serum (both Invitrogen) to 5e^5 cells/ml. The cells are then plated using a Multidrop into Greiner white tissue culture treated plates at 20 ul/well and incubated for 24 h at 37° C., 5% CO2, high humidity. On the day of the assay, the cell plates are allowed to cool to room temperature for 30 min prior to the assay.
(§6) Plates containing 1 ul of serially diluted compound, standard and HPE/ZPE are diluted 1/66 in assay buffer (PBS minus Ca^2+, minus Mg^2+ with 0.05% pluronic F127) using a Wellmate. […] The plates are left at room temperature for a further 2 hours before addition of 10 ul of the DiscoveRx PathHunter detection reagent (made up by adding 1 part Galacton Star, 5 parts Emerald II and 19 parts Cell Assay Buffer as per the manufacturer's instructions).
(§7) After reagent addition, plates are covered and incubated at room temperature for 60 minutes. Luminescence signal is read using an Envision. Test compound data are expressed as percentage inhibition defined by HPE and ZPE values for each plate. Percentage inhibition in the presence of test compound is plotted against compound concentration on a log scale to determine an […] from the resultant sigmoid curve.
Target sequence in this assay (P04629 33-796): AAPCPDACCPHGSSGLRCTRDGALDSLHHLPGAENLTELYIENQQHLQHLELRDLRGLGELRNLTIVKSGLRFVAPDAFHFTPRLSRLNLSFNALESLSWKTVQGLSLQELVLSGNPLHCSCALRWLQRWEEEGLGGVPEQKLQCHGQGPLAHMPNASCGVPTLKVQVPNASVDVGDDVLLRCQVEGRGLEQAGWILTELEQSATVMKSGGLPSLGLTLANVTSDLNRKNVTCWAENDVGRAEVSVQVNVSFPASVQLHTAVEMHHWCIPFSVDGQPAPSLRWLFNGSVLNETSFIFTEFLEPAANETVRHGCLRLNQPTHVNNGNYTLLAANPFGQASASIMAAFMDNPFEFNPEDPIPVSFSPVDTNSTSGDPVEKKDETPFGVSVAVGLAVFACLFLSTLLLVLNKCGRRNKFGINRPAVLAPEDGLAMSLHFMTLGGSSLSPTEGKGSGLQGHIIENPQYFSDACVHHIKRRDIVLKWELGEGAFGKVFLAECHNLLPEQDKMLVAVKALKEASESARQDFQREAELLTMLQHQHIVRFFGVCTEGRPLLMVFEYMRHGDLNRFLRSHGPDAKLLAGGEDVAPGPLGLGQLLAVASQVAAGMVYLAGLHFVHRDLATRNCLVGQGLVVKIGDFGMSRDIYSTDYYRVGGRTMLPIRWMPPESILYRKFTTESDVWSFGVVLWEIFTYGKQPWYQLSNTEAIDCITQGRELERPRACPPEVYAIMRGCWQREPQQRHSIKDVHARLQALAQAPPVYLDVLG

TRKB [4] = target: T2, TRKB; assay: cell-based; details: TrkB cell potency, TRKB PathHunter cell line
Experimental: as §1, §2, §3, §4, §5, §6, §7

[5] = isolated TRKB enzyme, read-out: TrkB enzyme potency

MDR1, sequence (P08183 whole entry): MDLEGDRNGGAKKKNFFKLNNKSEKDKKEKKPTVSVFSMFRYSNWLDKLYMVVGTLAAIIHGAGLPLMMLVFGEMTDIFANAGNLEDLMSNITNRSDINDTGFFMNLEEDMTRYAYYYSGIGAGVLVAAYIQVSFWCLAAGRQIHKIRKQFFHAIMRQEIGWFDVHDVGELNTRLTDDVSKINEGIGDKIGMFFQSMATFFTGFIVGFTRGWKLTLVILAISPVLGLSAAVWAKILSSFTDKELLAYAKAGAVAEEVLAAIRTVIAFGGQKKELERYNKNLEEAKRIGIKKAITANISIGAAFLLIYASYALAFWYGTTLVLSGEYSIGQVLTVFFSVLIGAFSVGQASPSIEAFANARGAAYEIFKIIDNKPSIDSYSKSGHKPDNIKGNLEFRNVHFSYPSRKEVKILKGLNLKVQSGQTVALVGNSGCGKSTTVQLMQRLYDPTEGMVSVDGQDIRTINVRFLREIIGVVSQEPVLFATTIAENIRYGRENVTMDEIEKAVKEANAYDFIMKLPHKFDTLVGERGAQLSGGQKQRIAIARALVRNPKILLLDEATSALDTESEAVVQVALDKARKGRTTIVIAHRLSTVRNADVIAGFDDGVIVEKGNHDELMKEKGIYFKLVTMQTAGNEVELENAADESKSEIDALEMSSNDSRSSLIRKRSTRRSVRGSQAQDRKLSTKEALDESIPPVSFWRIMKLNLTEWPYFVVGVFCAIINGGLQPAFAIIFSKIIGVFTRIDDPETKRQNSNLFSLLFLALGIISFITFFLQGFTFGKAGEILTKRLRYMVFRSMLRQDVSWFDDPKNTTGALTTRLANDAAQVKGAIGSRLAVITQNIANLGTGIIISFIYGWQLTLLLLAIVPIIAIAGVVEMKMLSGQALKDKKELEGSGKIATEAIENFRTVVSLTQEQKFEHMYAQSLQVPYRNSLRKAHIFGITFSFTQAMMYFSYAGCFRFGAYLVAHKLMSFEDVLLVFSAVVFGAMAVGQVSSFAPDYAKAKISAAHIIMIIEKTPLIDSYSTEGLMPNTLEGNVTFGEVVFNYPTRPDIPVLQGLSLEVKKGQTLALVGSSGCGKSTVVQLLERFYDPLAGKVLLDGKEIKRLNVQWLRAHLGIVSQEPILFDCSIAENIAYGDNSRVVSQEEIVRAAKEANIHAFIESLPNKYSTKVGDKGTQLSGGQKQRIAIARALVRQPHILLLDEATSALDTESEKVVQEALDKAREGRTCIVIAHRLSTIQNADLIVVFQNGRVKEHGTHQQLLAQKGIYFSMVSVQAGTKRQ

Row | Structure (SMILES) | Papp B→A (MDR1; MDCK-MDR1, MDCK-MDR1, B to A) [×10⁻⁶ cm/s] | Papp A→B (MDR1) [×10⁻⁶ cm/s] | IC50 (TRKA [1]) [nM] | IC50 (TRKB [2]; [5]) [nM] | IC50 (TRKA [3]) [nM] | IC50 (TRKB [4]) [nM] | Papp B→A (MDR1; MDCK-MDR1, B to A) [×10⁻⁶ cm/s] | IC50 (TRKB [2]; TrkB enzyme potency) [nM]
1 | C[C@H](CO)n1cc(C(=O)c2cncc(NC(=O)Cc3ccc(C(F)(F)F)cc3)c2)c2cncnc21 [Example 20, N-[5-({7-[(1R)-2-hydroxy-1-methylethyl]-7H-pyrrolo[2,3-d]pyrimidin-5-yl}carbonyl)pyridin-3-yl]-2-[4-(trifluoromethyl)phenyl]acetamide] | 17 | < 1 | 14 | 635 | 22 | 19 |  | 
2 | Cc1cc(C(F)(F)F)nn1CC(=O)Nc1cncc(C(=O)c2cn(C(C)(C)CO)c3nc(N)ncc23)c1 [Example 47, N-(5-{[2-Amino-7-(2-hydroxy-1,1-dimethylethyl)-7H-pyrrolo[2,3-d]pyrimidin-5-yl]carbonyl}pyridin-3-yl)-2-[5-methyl-3-(trifluoromethyl)-1H-pyrazol-1-yl]acetamide] | 21 | < 1 | 25 | 27 | 35 | 13 |  | 
3 | CC(C)(CO)n1cc(C(=O)c2cncc(NC(=O)Cn3cc(C4CC4)cn3)c2)c2cncnc21 [Example 33, 2-(4-cyclopropyl-1H-pyrazol-1-yl)-N-(5-{[7-(2-hydroxy-1,1-dimethylethyl)-7H-pyrrolo[2,3-d]pyrimidin-5-yl]carbonyl}pyridin-3-yl)acetamide] | 24 | 1 | 5.7 | 96 | 2 | 1.6 |  | 
4 | C[C@H](CO)n1cc(C(=O)c2cncc(NC(=O)Cc3ccc(F)cn3)c2)c2cncnc21 [Example 19, 2-(5-fluoropyridin-2-yl)-N-[5-({7-[(1R)-2-hydroxy-1-methylethyl]-7H-pyrrolo[2,3-d]pyrimidin-5-yl}carbonyl)pyridin-3-yl]acetamide] |  | < 1 | 249 |  | 1840 | 206 | 8.5 | 5480
5 | C[C@@H](CO)n1cc(C(=O)c2cncc(NC(=O)Cn3ccc(C(F)(F)F)n3)c2)c2cncnc21 [Example 12, N-[5-({7-[(1S)-2-hydroxy-1-methylethyl]-7H-pyrrolo[2,3-d]pyrimidin-5-yl}carbonyl)pyridin-3-yl]-2-[3-(trifluoromethyl)-1H-pyrazol-1-yl]acetamide] | 3.1 | < 1 | 9.2 | 547 | 68 | 22 |  | 
6 | CC(C)(CO)n1cc(C(=O)c2cncc(NC(=O)Cn3cc(C4CC4)nn3)c2)c2cnc(N)nc21 [Example 56, N-(5-{[2-Amino-7-(2-hydroxy-1,1-dimethylethyl)-7H-pyrrolo[2,3-d]pyrimidin-5-yl]carbonyl}pyridin-3-yl)-2-(4-cyclopropyl-1H-1,2,3-triazol-1-yl)acetamide] |  | 1.1 | 9.5 |  | 451 | 517 | 1 | 962
7 | CC(CO)n1cc(C(=O)c2cncc(NC(=O)Cn3cc(C4CC4)cn3)c2)c2cncnc21 (centres unmarked) [Example 25, 2-(4-Cyclopropyl-1H-pyrazol-1-yl)-N-(5-{[7-(2-hydroxy-1-methylethyl)-7H-pyrrolo[2,3-d]pyrimidin-5-yl]carbonyl}pyridin-3-yl)acetamide] | 13 | < 1 | 24 | 433 | 65 | 19 |  | 
8 | C[C@@H](CO)n1cc(C(=O)c2cncc(NC(=O)Cn3cc(C(F)(F)F)nn3)c2)c2cncnc21 [Example 13, N-[5-({7-[(1S)-2-hydroxy-1-methylethyl]-7H-pyrrolo[2,3-d]pyrimidin-5-yl}carbonyl)pyridin-3-yl]-2-[4-(trifluoromethyl)-1H-1,2,3-triazol-1-yl]acetamide] | 1 | < 1 | 20 | 449 | 1130 | 184 |  | 
9 | C[C@@H](CO)n1cc(C(=O)c2cncc(NC(=O)Cn3nc4ccccc4n3)c2)c2cncnc21 [Example 15, 2-(2H-benzotriazol-2-yl)-N-[5-({7-[(1S)-2-hydroxy-1-methylethyl]-7H-pyrrolo[2,3-d]pyrimidin-5-yl}carbonyl)pyridin-3-yl]acetamide] |  | < 1 | 17 |  | 143 | 40 | 15 | 514
10 | CC(C)(CO)n1cc(C(=O)c2cncc(NC(=O)Cn3ccc(C(F)(F)F)n3)c2)c2cncnc21 [Example 30, N-(5-{[7-(2-hydroxy-1,1-dimethylethyl)-7H-pyrrolo[2,3-d]pyrimidin-5-yl]carbonyl}pyridin-3-yl)-2-[3-(trifluoromethyl)-1H-pyrazol-1-yl]acetamide] |  | < 1 | 4 |  | 11 | 7.5 | 15 | 98
11 | CC(C)(CO)n1cc(C(=O)c2cncc(NC(=O)Cc3ccc(Cl)cc3)c2)c2cncnc21 [Example 28, 2-(4-chlorophenyl)-N-(5-{[7-(2-hydroxy-1,1-dimethylethyl)-7H-pyrrolo[2,3-d]pyrimidin-5-yl]carbonyl}pyridin-3-yl)acetamide] |  | < 1 | 4.9 |  | 2.7 | 1.9 | 20 | 75
12 | CC(C)(CO)n1cc(C(=O)c2cncc(NC(=O)Cc3ccc(Cl)cn3)c2)c2cncnc21 [Example 29, 2-(5-chloropyridin-2-yl)-N-(5-{[7-(2-hydroxy-1,1-dimethylethyl)-7H-pyrrolo[2,3-d]pyrimidin-5-yl]carbonyl}pyridin-3-yl)acetamide] |  | 1.3 | 2.8 |  | 5.8 | 4 | 23 | 68
13 | CC(C)(CO)n1cc(C(=O)c2cncc(NC(=O)Cc3ccc(F)cc3F)c2)c2cnc(N)nc21 [Example 50, N-(5-{[2-amino-7-(2-hydroxy-1,1-dimethylethyl)-7H-pyrrolo[2,3-d]pyrimidin-5-yl]carbonyl}pyridin-3-yl)-2-(2,4-difluorophenyl)acetamide] | 24 | < 1 | 6.6 | 143 | 10 | 2.1 |  | 
14 | CC(C)(CO)n1cc(C(=O)c2cncc(NC(=O)Cn3nc4ccccc4n3)c2)c2cnc(N)nc21 [Example 55, N-(5-{[2-Amino-7-(2-hydroxy-1,1-dimethylethyl)-7H-pyrrolo[2,3-d]pyrimidin-5-yl]carbonyl}pyridin-3-yl)-2-(2H-benzotriazol-2-yl)acetamide] |  | < 1 | 7 |  | 12 | 4.5 | 20 | 179
15 | Cc1cc(C(F)(F)F)nn1CC(=O)Nc1cncc(C(=O)c2cn([C@H](C)CO)c3ncncc23)c1 [Example 17, N-[5-({7-[(1R)-2-Hydroxy-1-methylethyl]-7H-pyrrolo[2,3-d]pyrimidin-5-yl}carbonyl)pyridin-3-yl]-2-[5-methyl-3-(trifluoromethyl)-1H-pyrazol-1-yl]acetamide] | 13 | < 1 | 23 |  | 103 | 45 |  | 
